Results from the supplement of paper PMC10883282.

How the values were obtained:
Assay in all cases: relative viability vs DMSO control (72 h) (fraction); higher = more viable cells
SW982 = test system: SW982
How it was run: (§1)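 Percent growth from ATPLite readings, averaged over up to triplicate wells, was used as relative viability. Sarcoma cell lines were seeded into 384-well plates for 80–90% confluence, dosed after 24 h, and kept 72 h at 37 °C, 5% CO2. Data were rescaled to a range where 1 is full and 0 is none.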

MES-SA = test system: MES-SA
How it was run: as §1

SK-ES-1 = test system: SK-ES-1
How it was run: as §1

A204 = test system: A204
How it was run: as §1

VA-ES-BJ = test system: VA-ES-BJ
How it was run: as §1

NC(=O)c1cccc2cn(-c3ccc([C@@H]4CCCNC4)cc3)nc12 [Niraparib]
relative viability
Conditions | A204 | MES-SA | SK-ES-1 | SW982 | VA-ES-BJ
0.00017 µM | 1.07 | 0.9156 | 1.02 | 1.05 | 0.985
0.00051 µM | 1.09 | 0.898 | 1.02 | 1.04 | 0.995
0.00152 µM | 1.05 | 0.868 | 1.01 | 1.05 | 0.976
0.00457 µM | 1.07 | 0.918 | 1.01 | 1.02 | 0.96
0.01372 µM | 1.05 | 0.882 | 1.02 | 1.06 | 0.99
0.04115 µM | 1.07 | 0.893 | 0.975 | 1.07 | 1.01
0.1235 µM | 1.064 | 0.876 | 0.8976 | 1.06 | 0.983
0.3704 µM | 0.998 | 0.8654 | 0.822 | 1.01 | 0.947
1.111 µM | 0.964 | 0.824 | 0.525 | 0.926 | 0.915
3.333 µM | 0.885 | 0.774 | 0.311 | 0.791 | 0.873
10 µM | 0.691 | 0.598 | 0.0804 | 0.635 | 0.708

C=CC(=O)Nc1cc(Nc2nccc(-c3cn(C)c4ccccc34)n2)c(OC)cc1N(C)CCN(C)C [Osimertinib]
relative viability
Conditions | A204 | MES-SA | SK-ES-1 | SW982 | VA-ES-BJ
0.00017 µM | 1.03 | 0.979 | 1 | 1.02 | 1.09
0.00051 µM | 1.04 | 0.947 | 1.05 | 1.05 | 1.09
0.00152 µM | 1.05 | 0.961 | 1.07 | 1.01 | 1.06
0.00457 µM | 1.04 | 0.932 | 1.01 | 1.03 | 1.04
0.01372 µM | 1.01 | 0.97 | 1.02 | 1.04 | 1.03
0.04115 µM | 1.03 | 0.941 | 1.026 | 1.03 | 1.02
0.1235 µM | 1.03 | 0.948 | 1 | 0.996 | 0.984
0.3704 µM | 0.9068 | 0.882 | 0.942 | 0.983 | 0.926
1.111 µM | 0.777 | 0.758 | 0.762 | 0.881 | 0.877
3.333 µM | 0.582 | 0.569 | 0.294 | 0.678 | 0.752
10 µM | 0.141 | 0.29 | 0.011 | 0.017 | 0.0739

C1=N/C2=N/c3ccc(OCCN4CCCC4)c(c3)COC/C=C/COCc3cccc(c3)C(=C1)N2 [Pacritinib]
relative viability
Conditions | A204 | MES-SA | SK-ES-1 | SW982 | VA-ES-BJ
0.00017 µM | 1.07 | 0.966 | 1.07 | 1.04 | 1.11
0.00051 µM | 1.05 | 0.9661 | 1.06 | 1.08 | 1.11
0.00152 µM | 1.07 | 0.953 | 1.06 | 1.12 | 1.09
0.00457 µM | 1.1 | 0.951 | 1.02 | 1.09 | 1.07
0.01372 µM | 1.07 | 0.938 | 1.07 | 1.09 | 1.06
0.04115 µM | 1.02 | 0.936 | 0.989 | 1.11 | 1.08
0.1235 µM | 0.918 | 0.937 | 0.945 | 0.923 | 1.02
0.3704 µM | 0.654 | 0.794 | 0.593 | 0.573 | 0.855
1.111 µM | 0.398 | 0.46 | 0.222 | 0.296 | 0.149
3.333 µM | 0.0367 | 0.0101 | 0.00983 | 0.157 | 0.0927
10 µM | 0.0523 | 0.00167 | 0.00643 | 0.153 | 0.0817

NC(=O)c1cnc2[nH]ccc2c1N[C@@H]1[C@@H]2CC3C[C@H]1C[C@@](O)(C3)C2 [Peficitinib]
relative viability
Conditions | A204 | MES-SA | SK-ES-1 | SW982 | VA-ES-BJ
0.00017 µM | 1.06 | 0.913 | 0.984 | 1.03 | 1.06
0.00051 µM | 1.07 | 0.9465 | 1.01 | 1.03 | 1.03
0.00152 µM | 1.07 | 0.9008 | 1.02 | 1.016 | 1.01
0.00457 µM | 1.06 | 0.918 | 0.97 | 1.03 | 1.01
0.01372 µM | 1.06 | 0.9 | 0.9884 | 1.02 | 1.04
0.04115 µM | 1.07 | 0.94 | 1.02 | 1.05 | 1.06
0.1235 µM | 1.02 | 0.945 | 1.02 | 1.032 | 1.04
0.3704 µM | 0.959 | 0.971 | 1.04 | 0.986 | 1.05
1.111 µM | 0.913 | 0.981 | 0.989 | 0.934 | 1.08
3.333 µM | 0.705 | 0.769 | 0.796 | 0.751 | 1.042
10 µM | 0.435 | 0.388 | 0.102 | 0.397 | 0.887

CCCCCCCCCCCCCCCCCCOP(=O)([O-])OC1CC[N+](C)(C)CC1 [Perifosine]
relative viability
Conditions | A204 | MES-SA | SK-ES-1 | SW982 | VA-ES-BJ
0.00017 µM | 1.05 | 0.987 | 1.08 | 1.02 | 1.08
0.00051 µM | 1.08 | 0.982 | 1.06 | 1.04 | 1.09
0.00152 µM | 1.07 | 0.998 | 1.07 | 1.06 | 1.05
0.00457 µM | 1.07 | 0.974 | 1.02 | 1.08 | 1.1
0.01372 µM | 1.06 | 0.96 | 0.975 | 1.1 | 1.07
0.04115 µM | 1.07 | 0.922 | 0.951 | 1.08 | 1.091
0.1235 µM | 1.08 | 0.953 | 1.05 | 1.1 | 1.06
0.3704 µM | 1.06 | 0.936 | 0.996 | 1.08 | 1.05
1.111 µM | 1.03 | 0.855 | 1.05 | 1.06 | 1.05
3.333 µM | 1.06 | 0.918 | 1.02 | 1.06 | 1.02
10 µM | 1.08 | 0.781 | 1.01 | 0.88 | 0.2547

FC(F)(F)c1ccc(CNc2ccc(Cc3c[nH]c4ncc(Cl)cc34)cn2)cn1 [Pexidartinib]
relative viability
Conditions | A204 | MES-SA | SK-ES-1 | SW982 | VA-ES-BJ
0.00017 µM | 1.14 | 0.96 | 1.05 | 1.02 | 1.07
0.00051 µM | 1.14 | 0.947 | 1.03 | 1.05 | 1.068
0.00152 µM | 1.09 | 0.954 | 1.02 | 1.06 | 1.07
0.00457 µM | 1.08 | 0.936 | 1.07 | 1.07 | 1.06
0.01372 µM | 1.07 | 0.911 | 1.04 | 1.05 | 1.05
0.04115 µM | 1.08 | 0.934 | 1.06 | 1.05 | 1.04
0.1235 µM | 1.05 | 0.923 | 1.03 | 1.06 | 1.06
0.3704 µM | 0.898 | 0.883 | 1.03 | 1.05 | 1.04
1.111 µM | 0.576 | 0.892 | 0.978 | 1.09 | 1.03
3.333 µM | 0.463 | 0.872 | 1.02 | 1.07 | 1.03
10 µM | 0.393 | 0.69 | 0.915 | 1.12 | 1.05

CCOc1cc2ncc(C#N)c(Nc3ccc(OCc4ccccn4)c(Cl)c3)c2cc1NC(=O)/C=C/[C@H]1CCCN1C [Pyrotinib]
relative viability
Conditions | A204 | MES-SA | SK-ES-1 | SW982 | VA-ES-BJ
5.081 pM | 1.04 | 0.967 | 0.989 | 1 | 1.06
15.24 pM | 1.07 | 0.957 | 1.02 | 1.03 | 1.05
45.72 pM | 1.08 | 0.9512 | 1.07 | 1.05 | 1.02
0.000137174 µM | 1.04 | 0.959 | 1.07 | 1.09 | 1.04
0.000411523 µM | 1.06 | 0.971 | 1.02 | 1.05 | 0.99
0.00123457 µM | 1.07 | 0.965 | 1.04 | 1.04 | 0.981
0.0037037 µM | 1.09 | 0.948 | 1.02 | 1.03 | 1.02
0.0111111 µM | 1.11 | 0.954 | 1.04 | 1.03 | 0.983
0.0333333 µM | 1.07 | 0.936 | 0.992 | 1.03 | 0.969
0.1 µM | 1.1 | 0.91 | 0.987 | 1.02 | 0.9689
0.3 µM | 1.06 | 0.863 | 0.8694 | 0.952 | 0.942

Cc1cn(-c2cc(NC(=O)c3ccc(C)c(Nc4nccc(-c5cnccn5)n4)c3)cc(C(F)(F)F)c2)cn1 [Radotinib]
relative viability
Conditions | A204 | MES-SA | SK-ES-1 | SW982 | VA-ES-BJ
0.00017 µM | 1.09 | 0.935 | 1.02 | 1.066 | 1.05
0.00051 µM | 1.11 | 0.938 | 1.01 | 1.07 | 1.08
0.00152 µM | 1.09 | 0.935 | 1.047 | 1.08 | 1.05
0.00457 µM | 1.13 | 0.941 | 1.04 | 1.07 | 1.06
0.01372 µM | 1.14 | 0.958 | 1.07 | 1.069 | 1.08
0.04115 µM | 1.13 | 0.954 | 1.07 | 1.08 | 1.05
0.1235 µM | 1.11 | 0.981 | 1.05 | 1.1 | 1.11
0.3704 µM | 1.07 | 0.99 | 1.03 | 1.11 | 1.17
1.111 µM | 0.836 | 1.01 | 1.02 | 1.11 | 1.18
3.333 µM | 0.629 | 1.01 | 1.01 | 1.13 | 1.21
10 µM | 0.451 | 1.03 | 1.074 | 1.12 | 1.21
